The subject of data set [1] is pUC19 plasmid. The experiment in a line: DNA intercalating assay (DNA band shift). Format: binding. As for the experimental part: A culture of JM83 bacteria containing a pUC19 plasmid was grown in 500 mL of ampicillin culture medium, and harvested by centrifugation at 4000 rpm for 15 minutes at 4° C. The pellets were lysed by alkali method and the DNA plasmids were collected as the lower band (corresponding to the closed circular DNA) of a centrifuge tube after CsCl-ethidium bromide gradient centrifugation. This collection method is described in, for example, Molecular Cloning: A Laboratory Manual, Cold Spring Harbor Laboratory Press, (1989). After removal of ethidium bromide from the DNA plasmids with 1-butanol saturated with water, the CsCl was removed by dialysis with TE (pH 8.0) buffer.
The pUC19 plasmid (1 μg in each reaction) was incubated with various concentrations of solutions containing different polyamine-linked acridine dimers for 30 minutes at 25° C. in 20 μL reaction mixtures (10 mM Tris-HCl, pH 7.4, 0.1 mM EDTA, and 5 mM NaCl). After reaction, the DNA mixture was run on a 1.0% agarose gel, which was stained with ethidium bromide and destained with distilled water. The shifts of the DNA bands were visualized using UV light and analyzed by photography. The DNA band shifting pattern formed a sigmoidal curve. The 50% shift concentration (SC50) corresponded to a 50% DNA band shift at the particular concentration, according to the curve of the DNA band-shifting photograph.

For data set [2], the system named is human COLO 205 solid tumors. The experiment in a line: in vivo antitumor activity for human COLO 205 solid tumors. Also noted: species or system human tumor in SCID mice. The method, then: SCID mice (16-18 g, 4-5 weeks old) were obtained from the animal center at the medical center of National Taiwan University, Taipei, R.O.C. and allowed to acclimate to their new environment for one week. The mice were given a sterilized pellet diet and sterilized water ad libitum, and housed under specific pathogene-free conditions in a temperature range between 23°-25° C. and a humidity of about 50±10%. The lighting was automatically operated on a 12 hour light/dark cycle. COLO 205 cells were obtained from ATCC, propagated in culture medium, and subcutaneously inoculated into the dorsal site of the mice.
After solid tumors were grown up to a size of about 1 gram, COLO 205F1 was isolated from the primary culture of the solid tumor and inoculated into the dorsal site of the mice. These tumors were grown to a size of approximately 200 mg (i.e., in a range of 100-300 mg). The mice were sorted according to body weight into groups including five mice. The compounds of Examples 5 and 6 were respectively resuspended in various solvents. The dosage of each compound was intraperitoneally (ip) or intravenously (iv) administered with different schedules. Tumor weights at the beginning of chemotherapy and at weekly intervals thereafter were estimated using two dimensional caliper measurements and calculated with the formula for an ellipsoid. Tumor weight was L X W^2 ×0.5, where L is the major axis and […] is the width of the tumor. The percentage of tumor growth (%TGI) was calculated according to the formula (1-(mean tumor weight of treated group/mean tumor weight of control group))×100. The tumor weights were corrected for tumor weight at the beginning of treatment. Tumor growth inhibition data were analyzed for statistical significance using the pooled variance t test. The tumor weights were monitored until termination of experiment.
Several studies of salt preparations, different formulations, and various administration routes and schedules were performed for the compounds of example 5 or 6 in order to identify their in vivo antitumor activities for human COLO 205 solid tumors. Tumor growth inhibitor studies of the compound of Example 5 were carried out in 1% carboxymethyl-cellulose against human COLO 205 solid tumors in SCID mice by ip administration with a schedule of Q4D×3 or by iv administration with a schedule of (Q1D×5)×2. Tumor growth inhibition studies of the compound at Example 6 were carried out in distilled H2 O against human COLO 205 solid tumor in SCID mice by iv administration with a schedule of (Q2D×3)×2 or in 2.5% cremophor against human COLO 205 solid tumor in SCID mice by iv administration with a schedule of (Q2D×3)×2.

Data set [3] in a line: water solubility. Format: physicochemical. Particulars: Table I.

Molecules are shown by their SMILES. Converted amounts (≈) assume the structure as drawn. Where a name gives a salt, the structure may show the parent alone.

What is called solubility is the concentration that dissolves in the medium under given conditions. Read a high solubility as a readily soluble substance.

As to `COc1cccc2c1C(=O)c1c(O)c3c(c(O)c1C2=O)C[C@@](O)(C(=O)CO)C[C@@H]3O[C@H]1C[C@H](N)[C@H](O)[C@H](C)O1` [adriarnycin, reference compound], the EC50 in data set [1] (pUC19 plasmid, 30 minutes, 25° C., pH 7.4, read-out: SC50 (50% shift concentration)) lay in the range of 10 to 15 µM. As for `COc1ccc2nc3cc(Cl)ccc3c(NCCCNCCCNc3c4ccc(Cl)cc4nc4ccc(OC)cc34)c2c1` [Example 5], the “in vivo antitumor activity” value is on record as “did not show in vivo antitumor activity” in data set [2] (1% carboxymethyl-cellulose, ip, Q4D×3) and “did not show in vivo antitumor activity” in data set [2] (1% carboxymethyl-cellulose, iv, (Q1D×5)×2).

On to `COc1ccc2nc3cc(Cl)ccc3c(NCCCN(C)CCCNc3c4ccc(Cl)cc4nc4ccc(OC)cc34)c2c1` [Example 12 (acetic acid salt)], for which the solubility in data set [3] was found to be 10000 µg/mL.

For `O=c1[nH]cc(F)c(=O)[nH]1` [Example 5-Fu, reference compound], the DNA intercalating activity entry in data set [1] (negative control) is “did not show DNA intercalating activity”. For the compound `COc1ccc2nc3cc(Cl)ccc3c(NCCCNCCCNc3c4ccc(Cl)cc4nc4ccc(OC)cc34)c2c1` [Example 6], in data set [2] (2.5% cremophor, iv, (Q2D×3)×2), the “in vivo antitumor activity, dose-response relationship” value is reported as “had the dose-response relationship of in vivo antitumor activity”. Further, in data set [2] (distilled H2O, iv, (Q2D×3)×2), the “in vivo antitumor activity” value is on record as “demonstrated in vivo antitumor activity”. Moreover, the solubility in data set [3] was found to be 8000 µg/mL (≈ 13 mM).

These data come from patent US5886185A, “Polyamine-linked acridine dimers” (Development Center for Biotechnoloy, priority 1997, dated 1999).
